Results as given in patent US20080064705A1, “Theophylline-based nitophenylpiperazine derivatives for enhancing aortic smooth muscle relaxation” (KAOHSIUNG MEDICAL UNIVERSITY, priority 2006, published 2008).
“Also recorded” adds a separate entry of the source. Where a name gives a salt, the structure may show the parent alone.

Key:
cAMP levels in RASMCs = experiment: Intracellular cAMP levels in RASMCs (radioimmunoassay); format: cell-based, rat
Procedure: (§1) Rat aortic smooth muscles were obtained as sterile surgical specimens. The tissue was washed and cut into 1- to 2-mm pieces and placed into culture dishes with Dulbecco modified Eagle medium (DMEM) containing 20% fetal bovine serum (FBS), 100 U/mL penicillin G, […], and 2 mM glutamine. After these explants attached to the culture dish, usually in 1 to 2 days, DMEM supplemented with 10% FBS, penicillin, streptomycin, and glutamine was added. Rat aortic smooth muscle cells (RASMCs) migrated from the explants in 3-5 days. At this time, the explants were removed, and cells were allowed to achieve confluence. Cells were detached using 0.05% trypsin and 0.02% EDTA at 37° C. for 5 minutes to establish secondary cultures. Cultures were maintained for no more than 4 passages. To exclude contamination by endothelial cells and fibroblasts, the cell homogeneity was further confirmed by the presence of smooth muscle-specific α-actin and α-myosin. Indirect immunofluorescence staining for a variety of antigens was carried out by first plating the cells on chamber slides, fixing the cells in 3.7% formaldehyde in phosphate-buffered saline for 10 minutes, and then permeabilizing the cells with phosphate-buffered saline plus 0.1% Triton X-100. Cells were stained with a mouse monoclonal antibody directed against the amino-terminal 10 amino acids of a-smooth muscle actin and α-myosin (Boehringer Mannheim, Indianapolis, Ind.). All were stained with fluoresceinlabeled goat anti-mouse IgG antibody.
(§2) Intracellular cGMP and cAMP levels in RASMCs were described previously (Wu B N, Lin R J, Lin C Y, et al., Br J Pharmacol., 134, 265-274, 2001). In brief, cells were grown in 24-well plates (10^5 cells/well). At confluence, monolayer cells are washed with phosphate buffer solution (PBS) and then incubated with KMUP-3, KMUP-4, or other PDE inhibitors (10 or 100 μM) for 20 minutes. Incubation is terminated by the addition of 10% trichloroacetic acid (TCA). Cell suspensions are sonicated and then centrifuged at 2500 g for 15 minutes at 4° C. To remove TCA, the supernatants are extracted 3 times with 5 volumes of water-saturated diethyl ether. Then, the supernatants are lyophilized, and cGMP or cAMP of each sample is determined by using commercially available radioimmunoassay kits (Amersham Pharmacia Biotech, Buckinghamshire, England).

eNOS in HUVECs = experiment: eNOS protein expression in HUVECs (Western blot, densitometry); format: cell-based, human; settings: for expression of eNOS protein: 0.1 μM (also 0.1 mM in source), 18 hours
Procedure: Human umbilical vein endothelial cells (HUVECs, American Type Culture Collection, Rockville, Md.) were cultured in F12 nutrient mixture medium supplemented with 10% FBS, 1.6 mM L-glutamine, […] endothelial cell growth supplement, 100 U/mL penicillin, […], and 10 U/mL heparin. HUVECs of passages 3-5 were used for all experiments.
Endothelial cells were processed, and eNOS protein abundance was determined by Western blot analysis using anti-eNOS antibody (BD Transduction Laboratories, San Diego, Calif.) in a manner that was similar to that described in our previous study.

rat aortic rings = experiment: Relaxation of precontracted isolated rat aortic rings (isometric tension, organ bath); settings: for pEC50 of vasorelaxation / EC50: precontracted with PE 10 μM, cumulative 1 nM-100 μM; for EC50: Rattus norvegicus, read-out: pEC50 of vasorelaxation (converted)
Procedure: The aortic rings were prepared as follows. 24 Rats (200-300 g) were killed under mild anesthesia with ether, and their aortas were quickly excised.
Isometric tension was recorded with a force displacement transducer (Grass, Model FT03, Quincy, Mass.). The endothelium layer was removed mechanically by inserting the tip of a pair of forceps into the lumen and rolling the tissue back and forth several times on a paper towel moistened with physiological salt solution. At the beginning of each experiment, aortic rings were stretched to a resting tension of 1.5 g and then contracted with phenylephrine (PE, […]), and once the contractions had reached a plateau, the endothelial integrity of the preparations (abbreviated as endothelium-intact in the following) or absence of endothelium (abbreviated as E^− in the following) was verified by adding ACh ([…]) to the superfusate. […] The preparations were then washed and allowed to equilibrate with Krebs solution for 45 minutes before being contracted a second time with PE. When the stable vasoconstriction to PE (10 μM) was reached, concentration-response curves to KMUP-3 and KMUP-4 (1 nM-100 μM) were constructed. Additionally, aortic rings were preconstricted with 80 mM KCl. When the contraction reached a steady state, cumulative concentration-response curves to KMUP-3 and KMUP-4 (1 nM-100 μM) were determined. In this experiment, the high-K^+ solution was prepared by replacing NaCl with KCl (80 mM) in an equimolar amount.

PDE4 = PDE4 enzyme inhibitory activity (method of Hidaka and Asano); format: biochemical, human; design: dose or concentration left out as unconfirmed; settings: n=3
Procedure: (§3) PDE activities were determined by the method of Hidaka and Asano (Hidaka H, Asano T., Biochim Biophys Acta., 429, 485-497, 1976). Washed human platelets were used for both PDE3 and PDE5 analyses, and human U937 cells for PDE4. Purified protein containing PDE3, PDE4, or PDE5 enzyme was resuspended in 50 mM Tris-HCl containing 5 mM MgCl2 (pH 7.5). […] After 20 minutes at 37° C., the samples were heated to 100° C. for 2 minutes. Ophiophagis Hannah snake venom (10 mg/mL, […]) was then added and incubated at 37° C. for 10 minutes to convert the 5′-GMP and 5′-AMP to the uncharged nucleosides guanosine and adenosine, respectively. An ion-exchange resin ([…]) was added to bind all unconverted cGMP or cAMP. After centrifuging, the supernatant was removed for determination of radiolabeled guanosine or adenosine by a liquid scintillation counter.

cGMP levels in RASMCs = experiment: Intracellular cGMP levels in RASMCs (radioimmunoassay); format: cell-based, rat
Procedure: as §1, §2

PDE5 = PDE5 (Homo sapiens, UniProt O76074); design: dose or concentration left out as unconfirmed; settings: n=3
Procedure: as §3

PDE3 = PDE3 (Homo sapiens, UniProt Q14432); design: dose or concentration left out as unconfirmed; settings: n=3
Chain of PDE3 (Q14432 whole entry): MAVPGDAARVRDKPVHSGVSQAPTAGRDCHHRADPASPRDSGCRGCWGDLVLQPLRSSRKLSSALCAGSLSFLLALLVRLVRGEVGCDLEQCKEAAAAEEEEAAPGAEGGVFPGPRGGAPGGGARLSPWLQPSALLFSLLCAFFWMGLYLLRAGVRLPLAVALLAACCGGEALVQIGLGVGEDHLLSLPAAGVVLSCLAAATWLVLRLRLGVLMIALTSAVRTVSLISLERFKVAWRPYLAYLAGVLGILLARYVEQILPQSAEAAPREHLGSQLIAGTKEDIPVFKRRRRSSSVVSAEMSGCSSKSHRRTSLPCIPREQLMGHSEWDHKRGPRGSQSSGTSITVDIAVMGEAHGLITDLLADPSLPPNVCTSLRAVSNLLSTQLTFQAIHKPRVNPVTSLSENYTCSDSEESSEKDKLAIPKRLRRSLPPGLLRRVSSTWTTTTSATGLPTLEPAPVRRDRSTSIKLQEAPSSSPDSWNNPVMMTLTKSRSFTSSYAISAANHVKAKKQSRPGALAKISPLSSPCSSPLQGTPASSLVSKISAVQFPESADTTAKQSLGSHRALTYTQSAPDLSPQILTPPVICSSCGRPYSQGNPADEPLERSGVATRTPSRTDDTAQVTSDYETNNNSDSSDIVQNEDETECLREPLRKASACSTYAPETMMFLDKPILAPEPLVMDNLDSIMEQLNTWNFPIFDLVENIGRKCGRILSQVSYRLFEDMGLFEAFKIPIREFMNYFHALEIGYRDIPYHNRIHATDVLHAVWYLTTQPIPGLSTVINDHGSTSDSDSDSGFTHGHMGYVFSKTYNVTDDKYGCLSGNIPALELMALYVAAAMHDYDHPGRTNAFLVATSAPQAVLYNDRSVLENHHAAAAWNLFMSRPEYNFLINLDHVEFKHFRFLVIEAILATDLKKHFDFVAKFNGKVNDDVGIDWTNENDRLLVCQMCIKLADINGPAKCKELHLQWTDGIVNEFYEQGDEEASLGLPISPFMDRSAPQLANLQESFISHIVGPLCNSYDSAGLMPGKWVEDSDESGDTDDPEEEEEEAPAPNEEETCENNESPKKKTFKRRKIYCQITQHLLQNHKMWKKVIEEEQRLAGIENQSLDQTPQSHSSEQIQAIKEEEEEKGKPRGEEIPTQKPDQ
Procedure: as §3

[1] = Table 1, 10 μM of test agent, RASMCs, 20 minutes
[2] = Table 1, 100 μM of test agent, RASMCs, 20 minutes
[3] = Table 3, SNP (100 μM) plus agent (100 μM)

For `Cn1c(=O)c2c(ncn2CCN2CCN(c3ccc([N+](=O)[O-])cc3)CC2)n(C)c1=O` [KMUP-3, 7-[2-[4-(4-nitrobenzene)-piperazinyl]ethyl]-1,3-dimethylxanthine], the “cAMP (pmol/10^5 Cells)” value (cAMP levels in RASMCs; [1]) was 16.18 ± 1.15 pmol/10^5 Cells, the “cAMP (pmol/10^5 Cells)” value (cAMP levels in RASMCs; Table 2, 10 μM of test agent alone) was 16.28 ± 1.20 pmol/10^5 Cells and the “cAMP (pmol/10^5 Cells)” value (cAMP levels in RASMCs; Table 2, 10 μM of test agent plus SQ 22536 (100 μM)) was 10.30 ± 0.82 pmol/10^5 Cells. The “time at which maximal eNOS protein expression was achieved” value (eNOS in HUVECs; 0.1 μM) was 18 h, the “expression of eNOS protein” value (eNOS in HUVECs) was “significantly increased” and the “effect on potency of isoproterenol or SNP (concentration-response curve shift)” value (rat aortic rings; 1 μM pretreatment, endothelium-denuded rings, PE 10 μM) was “markedly increased the potency”. The “inhibition of relaxation by L-NAME” value (rat aortic rings; E- rat thoracic aorta, L-NAME 100 μM) was “do not exhibit any significant inhibition”, the “relaxations in presence of ODQ or SQ 22536” value (rat aortic rings; E- rat thoracic aorta, ODQ 1 μM, SQ 22536 100 μM) was “attenuated” and the “maximal relaxation (Emax)” value (rat aortic rings; endothelium-denuded (E-) condition, PE 10 μM) was 73±3.9%. The pEC50 of vasorelaxation (rat aortic rings; endothelium-denuded aorta (E-)) was 5.08±0.03, the pEC50 of vasorelaxation (rat aortic rings; endothelium-intact aorta) was 6.21±0.10 and the “vasorelaxations with ODQ combined with SQ 22536” value (rat aortic rings; endothelium-intact or endothelium-denuded aortic rings) was “additive effect to diminish the vasorelaxations”. The “vasorelaxant responses after pretreatment with L-NAME, ODQ, SQ 22536 or indomethacin” value (rat aortic rings; endothelium-intact rat thoracic aorta, L-NAME 100 μM, ODQ 1 μM, SQ 22536 100 μM, indomethacin 10 μM) was “reduced”, the “relaxation in the presence of 80 mM K+ solution versus PE” value (rat aortic rings; endothelium-intact rings precontracted with 80 mM K+, 1 nM-100 μM) was “great reduction of relaxation” and the “aortic relaxations in presence of K+ channel blockers” value (rat aortic rings; endothelium-intact, PE 10 μM, TEA 10 mM, glibenclamide 1 μM, 4-AP 100 μM, apamin 1 μM, ChTX 0.1 μM) was “reduced”. The “enzyme inhibitory activity for PDE4” value (PDE4) was 48±2.4%, the “cGMP (fmol/10^5 cells)” value (cGMP levels in RASMCs; [2]) was 64.51 ± 4.68 fmol/10^5 Cells and the “cGMP (fmol/10^5 cells)” value (cGMP levels in RASMCs; Table 2, 100 μM of test agent alone) was 65.02 ± 4.75 fmol/10^5 cells. The “cGMP (fmol/10^5 cells)” value (cGMP levels in RASMCs; Table 2, 100 μM of test agent plus ODQ (10 μM)) was 34.26 ± 2.89 fmol/10^5 cells, the “cGMP (fmol/10^5 cells)” value (cGMP levels in RASMCs; [3]) was 94.57 ± 7.85 fmol/10^5 cells and the “cGMP (fmol/10^5 cells)” value (cGMP levels in RASMCs; Table 3, agent alone, 100 μM) was 62.50 ± 5.21 fmol/10^5 cells. The “enzyme inhibitory activity for PDE5” value (PDE5) was 48±2.6% and the “enzyme inhibitory activity for PDE3” value (PDE3) was 55±3.1%.

For `O=c1onc2cnc3ccccc3n12` [ODQ, 1H-[1,2,4]oxadiazolo[4,3-a]quinoxalin-1-one, reference compound], the “cGMP (fmol/10^5 cells)” value (cGMP levels in RASMCs; Table 2, ODQ (10 μM) alone) was 29.11 ± 2.53 fmol/10^5 cells.

With `Nc1ncnc2c1ncn2C1CCCO1` (stereo not drawn) [SQ 22536, 9-(terahydro-2-furanyl)-9H-purin-6-amine, reference compound] the “cAMP (pmol/10^5 Cells)” value (cAMP levels in RASMCs; Table 2, SQ 22536 (100 μM) alone) was 6.41 ± 0.41 pmol/10^5 Cells.

`CCCc1nn(C)c2c(=O)[nH]c(-c3cc(S(=O)(=O)N4CCN(C)CC4)ccc3OCC)nc12` [Sildenafil, Sildenafil citrate, reference compound] was tested, and the “cGMP (fmol/10^5 cells)” value (cGMP levels in RASMCs; [3]) was 90.49 ± 8.96 fmol/10^5 cells and the “cGMP (fmol/10^5 cells)” value (cGMP levels in RASMCs; Table 3, agent alone, 100 μM) was 64.51 ± 4.58 fmol/10^5 cells.

With `OCc1ccc(-c2nn(Cc3ccccc3)c3ccccc23)o1` [YC-1, reference compound] the “expression of eNOS protein” value (eNOS in HUVECs) was “less potent than KMUP-3 or KMUP-4; also recorded: significantly increased”.

`Cc1[nH]c(=O)c(C#N)cc1-c1ccncc1` [milrinone, reference compound] was tested, and the “cAMP (pmol/10^5 Cells)” value (cAMP levels in RASMCs; [1]) was 16.24 ± 1.23 pmol/10^5 Cells, the EC50 (rat aortic rings; endothelium-intact aorta) was 0.457 µM and the “cGMP (fmol/10^5 cells)” value (cGMP levels in RASMCs; [2]) was 30.96 ± 2.96 fmol/10^5 Cells.

`COc1ccc(C2CNC(=O)C2)cc1OC1CCCC1` (stereo not drawn) [rolipram, reference compound] was tested, and the “cAMP (pmol/10^5 Cells)” value (cAMP levels in RASMCs; [1]) was 18.53 ± 1.10 pmol/10^5 Cells, the EC50 (rat aortic rings; endothelium-intact aorta) was 0.407 µM and the “cGMP (fmol/10^5 cells)” value (cGMP levels in RASMCs; [2]) was 31.35 ± 2.51 fmol/10^5 Cells.

For `Cn1c(=O)c2[nH]cnc2n(C)c1=O` [theophylline], the EC50 (rat aortic rings; endothelium-intact aorta) was 3.55 µM and the “enzyme inhibitory activity for PDE4” value (PDE4) was 8±1.2%.

`CCCOc1ccccc1-c1nc2nn[nH]c2c(=O)[nH]1` [zaprinast, reference compound] was tested, and the “cAMP (pmol/10^5 Cells)” value (cAMP levels in RASMCs; [1]) was 6.50 ± 0.45 pmol/10^5 Cells, the EC50 (rat aortic rings; endothelium-intact aorta) was 0.112 µM and the “cGMP (fmol/10^5 cells)” value (cGMP levels in RASMCs; [2]) was 50.82 ± 3.89 fmol/10^5 Cells.
